# US20130344026A1, “Dimeric Smac Mimetics” (priority 2009, published 2013)
# Where two headings read alike, the source gives them in different places.
# Tested on: PANC-1 cells
# Assay: cell viability assay in PANC-1 cells (compound alone, + 100 ng/ml TNFa, + 300 ng/ml TRAIL)
# Type: cell-based
# [1] = Homo sapiens, PANC-1, compound alone, Tables 6-10, read-out: IC50 (μM) in cell viability assay in PANC-1 cells: Compound alone
# [2] = with 100 ng/ml TNFa, Tables 6-10, read-out: IC50 (μM) in cell viability assay in PANC-1 cells: Compound + 100 ng/ml TNFa
# [3] = with 300 ng/ml TRAIL, Tables 6-10, read-out: IC50 (μM) in cell viability assay in PANC-1 cells: Compound + 300 ng/ml TRAIL
# [4] = Homo sapiens, PANC-1, compound alone, Tables 15-18, read-out: IC50 (uM) in cell viability assay in PANC-1 cells: Cmpnd alone
# [5] = with 100 ng/ml TNFa, Tables 15-18, read-out: IC50 (uM) in cell viability assay in PANC-1 cells: Cmpnd + 100 ng/ml TNFa
# [6] = with 300 ng/ml TRAIL, Tables 15-18, read-out: IC50 (uM) in cell viability assay in PANC-1 cells: Cmpnd + 300 ng/ml TRAIL
structure (smiles),measurement,setting,value
CN[C@@H](C)C(=O)N[C@H](C(=O)N[C@@H](CCNC(=O)c1cccc(C(=O)N[C@H]2C[C@@H](C(=O)N[C@@H]3CCCc4ccccc43)N(C(=O)[C@@H](NC(=O)[C@H](C)NC)C(C)(C)C)C2)c1)C(=O)N[C@H](C)c1ccccc1)C(C)(C)C [Compound 174],IC50,[1],> 1 µM
same,IC50,[2],0.0069 µM
same,IC50,[3],0.0107 µM
CCCC[C@H](C)NC(=O)c1cc(C(=O)N[C@H]2C[C@@H](C(=O)N[C@@H]3CCCc4ccccc43)N(C(=O)[C@@H](NC(=O)[C@H](C)NC)C(C)(C)C)C2)cc(C(=O)N[C@H]2C[C@@H](C(=O)N[C@@H]3CCCc4ccccc43)N(C(=O)[C@@H](NC(=O)[C@H](C)NC)C(C)(C)C)C2)c1 [Compound 130],IC50,[1],> 1 µM
same,IC50,[2],0.018 µM
same,IC50,[3],0.019 µM
CN[C@@H](C)C(=O)N[C@H](C(=O)N1CCC[C@H]1CN(CCc1ccccc1)C(=O)C(F)(F)F)[C@@H](C)OCC#CC#CCN(C(=O)[C@H](C)NC)[C@H](C(=O)N1CCC[C@H]1CN(CCc1ccccc1)C(=O)C(F)(F)F)[C@@H](C)O [Compound P4-19],IC50,[4],> 1 µM
same,IC50,[5],0.005 µM
same,IC50,[6],0.006 µM
CN[C@@H](C)C(=O)Nc1nc(CC(=O)NCCc2cn([C@H]3C[C@@H](C(=O)N[C@@H]4CCCc5ccccc54)N(C(=O)[C@@H](NC(=O)[C@H](C)NC)C(C)(C)C)C3)nn2)cs1 [Compound 195],IC50,[1],> 1 µM
same,IC50,[2],> 1 µM
same,IC50,[3],> 1 µM
CN[C@@H](C)C(=O)N[C@@H](CCCCCC[C@H](NC(=O)[C@H](C)NC)C(=O)N[C@H]1c2ccccc2C[C@@H]1NC(=O)c1cc2ccccc2cc1OC)C(=O)N[C@H]1c2ccccc2C[C@@H]1NC(=O)c1cc2ccccc2cc1OC [Compound 58],IC50,[1],> 1 µM
same,IC50,[2],> 1 µM
same,IC50,[3],> 1 µM
CN[C@@H](C)C(=O)N[C@H](C(=O)N1C[C@@H](NC(=O)c2cccc(C(=O)N[C@H]3C[C@@H](C(=O)NCc4ccc(OC)c(O)c4)N(C(=O)[C@@H](NC(=O)[C@H](C)NC)C(C)(C)C)C3)c2)C[C@H]1C(=O)NCc1ccc(OC)c(O)c1)C(C)(C)C [Compound 5],IC50,[1],> 1 µM
same,IC50,[2],0.706 µM
same,IC50,[3],0.982 µM
"CN[C@@H](C)C(=O)N[C@H](C(=O)N1C[C@@H](NC(=O)c2cccc(C(=O)N[C@H]3C[C@@H](C(=O)N[C@@H]4CCCc5ccc(Br)cc54)N(C(=O)[C@@H](NC(=O)[C@H](C)NC)C(C)(C)C)C3)c2)C[C@H]1C(=O)N[C@@H]1CCCc2ccc(Br)cc21)C(C)(C)C (single isomer, unassigned) [Compound 62]",IC50,[1],> 1 µM
same,IC50,[2],0.107 µM
same,IC50,[3],0.099 µM
CN[C@@H](C)C(=O)N[C@H](C(=O)N1C[C@H](NC(=O)c2ccc(CCc3ccc(C(=O)N[C@@H]4C[C@@H](C(=O)N[C@@H]5CCCc6ccccc65)N(C(=O)[C@@H](NC(=O)[C@H](C)NC)C(C)(C)C)C4)cc3)cc2)C[C@H]1C(=O)N[C@@H]1CCCc2ccccc21)C(C)(C)C [Compound P2-46],IC50,[4],> 1 µM
same,IC50,[5],0.0007 µM
same,IC50,[6],0.0009 µM
CN[C@@H](C)C(=O)N[C@H](C(=O)N1C[C@@H](NC(=O)c2cccc(C(=O)N[C@H]3C[C@@H](C(=O)N[C@H](COC)[C@@H](C)OC)N(C(=O)[C@@H](NC(=O)[C@H](C)NC)C(C)(C)C)C3)c2)C[C@H]1C(=O)N[C@H](COC)[C@@H](C)OC)C(C)(C)C [Compound 69],IC50,[1],> 1 µM
same,IC50,[2],> 1 µM
same,IC50,[3],> 1 µM
"CN[C@@H](C)C(=O)N[C@H](C(=O)N1C[C@@H](NC(=O)c2cccc(C(=O)N[C@H]3C[C@@H](C(=O)NC4CCOc5ccccc54)N(C(=O)[C@@H](NC(=O)[C@H](C)NC)C(C)(C)C)C3)c2)C[C@H]1C(=O)NC1CCOc2ccccc21)C(C)(C)C (single isomer, unassigned) [Compound 65]",IC50,[1],> 1 µM
same,IC50,[2],0.265 µM
same,IC50,[3],0.328 µM
CN[C@@H](C)C(=O)N[C@H](C(=O)N1C[C@@H](NC(=O)c2cccc(C(=O)N[C@H]3C[C@@H](C(=O)NCc4ccc(O)c(OC)c4)N(C(=O)[C@@H](NC(=O)[C@H](C)NC)C(C)(C)C)C3)c2)C[C@H]1C(=O)NCc1ccc(O)c(OC)c1)C(C)(C)C [Compound 6],IC50,[1],> 1 µM
same,IC50,[2],0.471 µM
same,IC50,[3],0.31 µM
CN[C@@H](C)C(=O)N[C@@H](Cc1ccc(NC(=O)Nc2ccc(C[C@H](NC(=O)[C@H](C)NC)C(=O)N3CCC[C@H]3C(=O)N[C@@H]3CCCc4ccccc43)cc2)cc1)C(=O)N1CCC[C@H]1C(=O)N[C@@H]1CCCc2ccccc21 [Compound P2-38],IC50,[4],> 1 µM
same,IC50,[5],0.021 µM
same,IC50,[6],0.037 µM
CC[C@H](NC(=O)[C@H](C)NC)C(=O)N[C@@H](CCNC(=O)c1cccc(C(=O)N[C@H]2C[C@@H](C(=O)N[C@@H]3CCCc4ccccc43)N(C(=O)[C@@H](NC(=O)[C@H](C)NC)C(C)(C)C)C2)c1)C(=O)N[C@H](C)c1ccccc1 [Compound 177],IC50,[1],> 1 µM
same,IC50,[2],0.035 µM
same,IC50,[3],0.05 µM
CN[C@@H](C)C(=O)N[C@H](C(=O)N1CCC[C@H]1C(=O)N[C@H]1c2ccccc2C[C@@H]1NC(=O)c1ccc(C(=O)N[C@H]2Cc3ccccc3[C@@H]2NC(=O)[C@@H]2CCCN2C(=O)[C@@H](NC(=O)[C@H](C)NC)C(C)(C)C)cc1)C(C)(C)C [Compound 124],IC50,[1],> 1 µM
same,IC50,[2],0.061 µM
same,IC50,[3],0.066 µM
CN[C@@H](C)C(=O)N[C@H](C(=O)N1C[C@@H](NC(=O)c2cccc(C(=O)N[C@H]3C[C@@H](C(=O)N[C@H](C)c4ccccn4)N(C(=O)[C@@H](NC(=O)[C@H](C)NC)C(C)(C)C)C3)c2)C[C@H]1C(=O)N[C@H](C)c1ccccn1)C(C)(C)C [Compound 25],IC50,[1],> 1 µM
same,IC50,[2],0.375 µM
same,IC50,[3],0.293 µM
CN[C@@H](C)C(=O)N[C@@H](CCCCCC[C@H](NC(=O)[C@H](C)NC)C(=O)N1CCCC[C@H]1C(=O)N[C@@H]1CCCc2ccccc21)C(=O)N1CCCC[C@H]1C(=O)N[C@@H]1CCCc2ccccc21 [Compound 94],IC50,[1],> 1 µM
same,IC50,[2],0.014 µM
same,IC50,[3],0.049 µM
CN[C@@H](C)C(=O)N[C@@H](CCNC(=O)c1ccc(-c2ccc(C(=O)NCC[C@H](NC(=O)[C@H](C)NC)C(=O)N3CCC[C@H]3C(=O)N[C@@H]3CCCc4ccccc43)cc2)cc1)C(=O)N1CCC[C@H]1C(=O)N[C@@H]1CCCc2ccccc21 [Compound P2-50],IC50,[4],> 1 µM
same,IC50,[5],0.067 µM
same,IC50,[6],0.019 µM
"CN[C@@H](C)C(=O)N[C@H](C(=O)N1C[C@@H](NC(=O)c2cccc(C(=O)N[C@H]3C[C@@H](C(=O)NC4CCCc5cc(F)ccc54)N(C(=O)[C@@H](NC(=O)[C@H](C)NC)C(C)(C)C)C3)c2)C[C@H]1C(=O)NC1CCCc2cc(F)ccc21)C(C)(C)C (single isomer, unassigned) [Compound 73]",IC50,"compound alone, Tables 6-10, read-out: IC50 (μM) in cell viability assay in PANC-1 cells: Compound alone",> 1 µM
same,IC50,[2],0.0698 µM
same,IC50,[3],0.073 µM
CN[C@@H](C)C(=O)NC(C(=O)N1C[C@@H](NC(=O)c2cccc(C(=O)N[C@H]3CC(C(=O)N[C@H](CO)Cc4ccccc4)N(C(=O)[C@@H](NC(=O)[C@H](C)NC)C(C)(C)C)C3)c2)CC1C(=O)N[C@H](CO)Cc1ccccc1)C(C)(C)C (stereo partly drawn) [Compound 43],IC50,[1],> 1 µM
same,IC50,[2],0.05 µM
same,IC50,[3],0.048 µM
CN[C@@H](C)C(=O)N[C@H](C(=O)N1CCC[C@H]1Cn1ccnc1Cc1ccccc1)[C@@H](C)OCC#CC#CCO[C@H](C)[C@H](NC(=O)[C@H](C)NC)C(=O)N1CCC[C@H]1Cn1ccnc1Cc1ccccc1 [Compound 74],IC50,[1],> 1 µM
same,IC50,[2],> 1 µM
same,IC50,[3],> 1 µM
